Source: PubChem BioAssay AID330 (DTP/NCI, 2004)
Toxic doses and inconclusive results are not listed. Rule for the calls: active = survival T/C of 150% or more; inactive = T/C below 125% in these data.

System: P388 leukemia ip, CD2F1 mice, survival T/C
Experiment: NCI In Vivo Anticancer Drug Screen. Data for tumor model P388 Leukemia (intraperitoneal) in CD2F1 (CDF1) mice
Settings: endpoint: median survival time, higher = longer survival
Method in brief: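 Mice carrying the transplanted tumor received test compound or vehicle. Survival was recorded in each group, and the value is the treated-group measurement divided by that of the vehicle-treated control group.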

[1] = dose: 50.0 mg/kg/injection, schedule: Q01DX009 (ip), vehicle: saline
[2] = dose: 100.0 mg/kg/injection, schedule: Q01DX009 (ip), vehicle: saline
[3] = dose: 200.0 mg/kg/injection, schedule: Q01DX009 (ip), vehicle: saline
[4] = dose: 100.0 mg/kg/injection, schedule: Q01DX009 (ip), vehicle: saline with Tween-80

Measured: T/C

O=C1OC(c2ccccc2)=N/C1=C/c1c(Cl)n(-c2ccccc2)c2ccccc12
inactive: dose: 100.0 mg/kg/injection, schedule: Q01DX001 (ip), vehicle: Klucel (hydroxypropylcellulose) (HPC) 96 % of control | dose: 200.0 mg/kg/injection, schedule: Q01DX001 (ip), vehicle: Klucel (hydroxypropylcellulose) (HPC) 94 % of control | dose: 400.0 mg/kg/injection, schedule: Q01DX001 (ip), vehicle: Klucel (hydroxypropylcellulose) (HPC) 93 % of control

O=c1[nH]c2ncccc2c(O)c1-c1ccccc1
inactive: [1] 107 % of control | [2] 96 % of control | [3] 96 % of control

CCOc1cc2c(cc1C(C)c1cc(C(C)(C)C)c(O)c(C(C)(C)C)c1)OCO2 (stereo not drawn)
inactive: dose: 50.0 mg/kg/injection, schedule: Q01DX005 (ip), vehicle: saline with Tween-80 100 % of control | dose: 100.0 mg/kg/injection, schedule: Q01DX005 (ip), vehicle: saline with Tween-80 91 % of control | dose: 200.0 mg/kg/injection, schedule: Q01DX005 (ip), vehicle: saline with Tween-80 88 % of control

CCCCn1c(=S)sc2ccccc21
inactive: dose: 50.0 mg/kg/injection, schedule: Q04DX003 (ip), vehicle: saline with Tween-80 98 % of control | dose: 100.0 mg/kg/injection, schedule: Q04DX003 (ip), vehicle: saline with Tween-80 100 % of control | dose: 200.0 mg/kg/injection, schedule: Q04DX003 (ip), vehicle: saline with Tween-80 104 % of control | dose: 400.0 mg/kg/injection, schedule: Q04DX003 (ip), vehicle: saline with Tween-80 104 % of control

C[N+](C)(C)c1ccc(/C=C/[N+](=O)[O-])cc1
inactive: dose: 12.5 mg/kg/injection, schedule: Q01DX009 (ip), vehicle: saline with Tween-80 95 % of control | dose: 25.0 mg/kg/injection, schedule: Q01DX009 (ip), vehicle: saline with Tween-80 102 % of control

O=C1OC(OC/C(Br)=C(\Br)COC2OC(=O)C(Cl)=C2Cl)C(Cl)=C1Cl (stereo not drawn)
inactive: dose: 15.0 mg/kg/injection, schedule: Q01DX005 (ip), vehicle: saline with Tween-80 103 % of control | dose: 30.0 mg/kg/injection, schedule: Q01DX005 (ip), vehicle: saline with Tween-80 103 % of control | dose: 60.0 mg/kg/injection, schedule: Q01DX005 (ip), vehicle: saline with Tween-80 112 % of control

CC/C(C)=N\Nc1cc(C)[nH]c(=O)c1
inactive: dose: 100.0 mg/kg/injection, schedule: Q01DX001 (ip), vehicle: saline with Tween-80 105 % of control | dose: 200.0 mg/kg/injection, schedule: Q01DX001 (ip), vehicle: saline with Tween-80 100 % of control | dose: 400.0 mg/kg/injection, schedule: Q01DX001 (ip), vehicle: saline with Tween-80 91 % of control

Cc1c(C(=O)O)nc(-c2ccc3c(n2)C(=O)C(N)=CC3=O)c2[nH]c3ccccc3c12
inactive: dose: 0.1 mg/kg/injection, schedule: Q01DX009 (ip), vehicle: distilled water + Tween-80 + alcohol 110 % of control | dose: 0.2 mg/kg/injection, schedule: Q01DX009 (ip), vehicle: distilled water + Tween-80 + alcohol 116 % of control | dose: 0.4 mg/kg/injection, schedule: Q01DX009 (ip), vehicle: distilled water + Tween-80 + alcohol 112 % of control | dose: 0.8 mg/kg/injection, schedule: Q01DX009 (ip), vehicle: distilled water + Tween-80 + alcohol 113 % of control

C=C(C)C(=NC(C)(C)C)Nc1cccc(Cl)c1
inactive: [1] 100 % of control | [2] 104 % of control | [3] 100 % of control

O=C1NC(=S)N/C1=C\c1ccc(Cl)c(Cl)c1
inactive: [4] 95 % of control | dose: 200.0 mg/kg/injection, schedule: Q01DX009 (ip), vehicle: saline with Tween-80 94 % of control | dose: 400.0 mg/kg/injection, schedule: Q01DX009 (ip), vehicle: saline with Tween-80 91 % of control

CCOC(=O)C(=O)Nc1[nH]c(C)c(C)c1C#N
inactive: dose: 50.0 mg/kg/injection, schedule: Q01DX009 (ip), vehicle: saline + alcohol 91 % of control | dose: 100.0 mg/kg/injection, schedule: Q01DX009 (ip), vehicle: saline + alcohol 96 % of control | dose: 200.0 mg/kg/injection, schedule: Q01DX009 (ip), vehicle: saline + alcohol 89 % of control

CCOC(=O)C1=CCC(n2cc(F)c(=O)[nH]c2=O)O1 (stereo not drawn)
inactive: [1] 98 % of control | [2] 101 % of control | [3] 99 % of control | dose: 400.0 mg/kg/injection, schedule: Q01DX009 (ip), vehicle: saline 110 % of control

Clc1ccc(SSc2ccc(Cl)cc2)cc1
inactive: dose: 12.5 mg/kg/injection, schedule: Q01DX009 (ip), vehicle: gum acacia 106 % of control | dose: 25.0 mg/kg/injection, schedule: Q01DX009 (ip), vehicle: gum acacia 106 % of control | dose: 50.0 mg/kg/injection, schedule: Q01DX009 (ip), vehicle: gum acacia 114 % of control

CCOC(=O)C(C(=O)OCC)[N+](=O)[O-]
inactive: dose: 50.0 mg/kg/injection, schedule: Q01DX009 (ip), vehicle: saline with Tween-80 100 % of control | [4] 93 % of control
